Patent publication US20240075050A1, “Methods and Compositions for Treating Leucine Rich Repeat Kinase 2 (LRRK2)-Associated Disorder or Condition” (University of Connecticut, priority 2022, published 2024)

Columns and labels:
[1] = test system: LRRK2; assay: LRRK2 levels in mouse striatal tissue after intracranial AICAr via osmotic pumps, Western blot; format: in vivo
Procedure: Saline injections were performed as controls.
Stereotaxic intracranial injection. Three days before survival surgery, osmotic pumps (ALZET, 1004) were filled with saline, 1 mg/ml or 30 mg/ml AICAr in saline, assembled with brain infusion kits (ALZET, Brain Infusion Kit 2), and incubated in saline at 37° C. 3-month-old mice were anesthetized by isoflurane gas supplemented with 0.5 L/min oxygen. A ˜1.5 cm incision was made midline on the scalp. For mouse striatum injection, one hole was drilled at the following coordinates: anterioposterior=+0.5 mm from bregma; lateral=−2.0 mm from bregma; dorsoventral=−3.5 mm. For mouse substantia nigra pars compacta (SNpc) injection, one hole was drilled at the following coordinates: anterioposterior=−3.2 mm from bregma; lateral=−1.2 mm from bregma; dorsoventral=−4.2 mm. 1 ul LPS (5 ug) or PBS was injected at a rate of 0.2 ul/min using a Hamilton syringe with a 26-gauge blunt needle. After injection, the needle was in place for 5 minutes to minimize backflow. A subcutaneous pocket was made on the animal's back to hold the osmotic pump. The 28-gauge needle from infusion cannulae connected to the osmotic pump with a vinyl catheter tube was inserted into the same hole and then the cannulae was secured to the skull with Loctite 454 (ALZET). The wound was closed with monofilament suture. […]

[2] = test system: LRRK2 mRNA; assay: LRRK2 mRNA stability assay in the presence of actinomycin D; format: cell-based, human; settings: SH-SY5Y, 2 mM AICAr, 24-h period, 10 μg/ml actinomycin D
Procedure: FIGS. 3A-3J depict that AICAr regulates LRRK2 at mRNA level and through a specific region. FIGS. 3A and 3B depict the LRRK2 protein levels upon treatment of AICAr together with a proteasome inhibitor MG132 or an autophagy inhibitor chloroquine (CQ). […] LRRK2 expression levels were analyzed by Western blot. Images were quantified by ImageJ software. Data are mean±SEM, n=3 independent experiments. ***p<0.001, ****p<0.0001 by one-way ANOVA followed by a Tukey's post hoc test. FIG. 3C depicts the LRRK2 and GBA mRNA levels upon AICAr treatment. SH-SY5Y cells were treated with or without 2 mM AICAr for 24 hours. Total RNA was extracted. LRRK2 and GBA mRNA levels were analyzed by real-time PCR. Data are mean±SEM, n=4 independent experiments. **p<0.01 by Student's t tests. ns: not statistically significant. […] LRRK2 mRNA levels were analyzed by real-time PCR. […] LRRK2 expression levels were analyzed by Western blot. Images were quantified by ImageJ software. […] LRRK2 deletion mutant expression levels were analyzed by Western blot. FIGS. 3I and 3J depict that the specific region (2221-3927 bp) of the synthesized Flag-LRRK2 cDNA was replaced with the native sequence and the response of this chimeric LRRK2 cDNA expression to AICAr treatment was analyzed by Western blot. Images were quantified by ImageJ software. […]

NC(=O)c1ncn([C@@H]2O[C@H](CO)[C@@H](O)[C@H]2O)c1N [AICAr, 5-aminoimidazole-4-carboxamide riboside]
LRRK2 levels in striatal tissues ([1]; WT mice, LPS model, AICAr 2.4 μg/day/animal into striatum, 21 days, Western blot): significant decrease
LRRK2 levels in striatal tissue near the injection sites ([1]; male and female mice, striatum, osmotic minipumps, 72 ug/animal/day, 1 day after injection): dramatically decreased
acceleration of LRRK2 mRNA decay [2]: about twofold
